Experimental data: PubChem BioAssay (NCI)
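Cultured in 96-well plates, cells were exposed to test compound for 48 hours across five concentrations. The concentration for full growth arrest is given as TGI.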

What was measured:
Assay in all cases: NCI anticancer screen, dose series, 48 h
[1] = test system: OVCAR-5 ovarian
[2] = test system: HT29 colon
[3] = test system: SK-MEL-28 melanoma
[4] = test system: U251 CNS
[5] = test system: HS 578T breast
[6] = test system: M14 melanoma
[7] = test system: SR leukemia
[8] = test system: SW-620 colon
[9] = test system: NCI-H23 lung
[10] = test system: SF-268 CNS
[11] = test system: ACHN renal
[12] = test system: SNB-75 CNS
[13] = test system: RPMI-8226 leukemia
[14] = test system: K-562 leukemia
[15] = test system: CAKI-1 renal
[16] = test system: SK-OV-3 ovarian
[17] = test system: MDA-MB-435
[18] = test system: HCC-2998 colon
[19] = test system: TK-10 renal

SMILES	TGI [1]	TGI [2]	TGI [3]	TGI [4]	TGI [5]	TGI [6]	TGI [7]	TGI [8]	TGI [9]	TGI [10]	TGI [11]	TGI [12]	TGI [13]	TGI [14]	TGI [15]	TGI [16]	TGI [17]	TGI [18]	TGI [19]
CSC(=N/C=C/c1ccccc1)SC	> 100 µM	> 100 µM	> 100 µM	> 100 µM	> 100 µM	> 100 µM	> 100 µM	> 100 µM	> 100 µM	> 100 µM	> 100 µM	> 100 µM	> 100 µM	> 100 µM	> 100 µM	> 100 µM	> 100 µM	–	–
C/C=C/C(C#N)(/C=C/c1ccccc1)OP1(=O)OC(c2ccccc2)C(C)N1C (stereo not given)	43.6 µM	44.7 µM	32.7 µM	32.8 µM	49.9 µM	37.1 µM	–	39.2 µM	–	42.1 µM	68.7 µM	39.4 µM	40 µM	39.3 µM	54.8 µM	55.3 µM	34.9 µM	27.5 µM	37.8 µM
CCCN(CCC)CCc1ccc(OC2=CCN(C)CC2)cc1	> 100 µM	46.4 µM	91.7 µM	> 100 µM	> 100 µM	29.1 µM	81.7 µM	> 100 µM	> 100 µM	> 100 µM	> 100 µM	–	> 100 µM	> 100 µM	> 100 µM	> 100 µM	> 100 µM	> 100 µM	> 100 µM
COc1ccc(NC(=S)Nc2cc(C)cc(C)n2)cc1	> 100 µM	> 100 µM	> 100 µM	> 100 µM	> 100 µM	> 100 µM	> 100 µM	> 100 µM	–	> 100 µM	–	> 100 µM	> 100 µM	> 100 µM	> 100 µM	> 100 µM	> 100 µM	–	> 100 µM
O=C(NC(=S)Nc1ccc(Br)cc1)c1ccc2c(c1)Sc1ccccc1S2	40.2 µM	95.1 µM	> 100 µM	35 µM	59.7 µM	42.9 µM	35.5 µM	> 100 µM	45.4 µM	46.4 µM	34.2 µM	29.2 µM	–	24.5 µM	38.2 µM	33 µM	> 100 µM	–	30.9 µM
COc1cc(NC(C)c2ccc3c(c2)OCCO3)cc(OC)c1OC (stereo not given)	> 100 µM	> 100 µM	> 100 µM	94.1 µM	52.1 µM	> 100 µM	> 100 µM	> 100 µM	64.7 µM	> 100 µM	> 100 µM	–	84.6 µM	> 100 µM	> 100 µM	–	32 µM	> 100 µM	> 100 µM
O=[N+]([O-])C(=C(Cl)Cl)C(Cl)=C(Cl)Cl	3.94 µM	0.852 µM	0.912 µM	7.26 µM	3.29 µM	0.0871 µM	> 100 µM	0.157 µM	1.96 µM	4.92 µM	2.05 µM	3.35 µM	–	0.118 µM	0.699 µM	9.51 µM	1.07 µM	5.43 µM	1.35 µM
